According to the supplement of paper PMC12370961:

Assays:
Experiment in all cases: differential drug sensitivity score (dDSS) relative to sarcoma reference cohort mean DSS (DSS units (0-100 scale difference)); higher = more selective sensitivity than reference sarcomas
Details in all cases: exposure time: 72 h; concentration range: 10-10000 nM
[1] = system: ES-ZH016 (patient-derived Ewing sarcoma tumoroid)
Experimental: (§1)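 Drug response profiling of patient-derived Ewing sarcoma and CIC::DUX4 sarcoma tumoroid models (or cells tested directly after isolation from the tumor, 'direct'). The DSS is the normalised AUC (0-100); dDSS is the sample DSS minus the mean DSS of a 34-sarcoma reference cohort profiled in the same lab.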

[2] = system: ES-ZH008 (patient-derived Ewing sarcoma tumoroid)
Experimental: as §1

[3] = system: ES-ZH004 (patient-derived Ewing sarcoma tumoroid)
Experimental: as §1

[4] = system: ES-ZH007 (patient-derived Ewing sarcoma tumoroid)
Experimental: as §1

[5] = system: CDS-ZH002 direct (CIC-DUX4 sarcoma cells right after isolation)
Experimental: as §1

[6] = system: CDS-ZH001-2 (patient-derived CIC-DUX4 sarcoma tumoroid)
Experimental: as §1

[7] = system: ES-ZH001 (patient-derived Ewing sarcoma tumoroid)
Experimental: as §1

[8] = system: ES-ZH016 direct (Ewing sarcoma cells right after isolation)
Experimental: as §1

[9] = system: ES-ZH002 (patient-derived Ewing sarcoma tumoroid)
Experimental: as §1

[10] = system: ES-ZH009 (patient-derived Ewing sarcoma tumoroid)
Experimental: as §1

[11] = system: CDS-ZH002 (patient-derived CIC-DUX4 sarcoma tumoroid)
Experimental: as §1

[12] = system: CDS-ZH001 (patient-derived CIC-DUX4 sarcoma tumoroid)
Experimental: as §1

[13] = system: CDS-ZH003 (patient-derived CIC-DUX4 sarcoma tumoroid)
Experimental: as §1

| SMILES | differential drug sensitivity score [1] | differential drug sensitivity score [2] | differential drug sensitivity score [3] | differential drug sensitivity score [4] | differential drug sensitivity score [5] | differential drug sensitivity score [6] | differential drug sensitivity score [7] | differential drug sensitivity score [8] | differential drug sensitivity score [9] | differential drug sensitivity score [10] | differential drug sensitivity score [11] | differential drug sensitivity score [12] | differential drug sensitivity score [13] |
| --- | --- | --- | --- | --- | --- | --- | --- | --- | --- | --- | --- | --- | --- |
| C[C@]12C=CC(=O)C=C1CC[C@@H]1[C@@H]2C(=O)C[C@@]2(C)[C@H]1CC[C@]2(O)C(=O)CO [Prednisone] | -0.5 | -0.5 | -0.5 | -0.5 | -0.5 | -0.5 | -0.5 | -0.5 | -0.5 | -0.5 | -0.5 | -0.5 | -0.5 |
| CC(C)(C)c1cc(NC(=O)Nc2ccc(-c3cn4c(n3)sc3cc(OCCN5CCOCC5)ccc34)cc2)no1 [Quizartinib] | -0.6 | 0.6 | -0.8 | 2.4 | 8.3 | 13.2 | -1.7 | 9.4 | 1.6 | 3.6 | -2.9 | -2.8 | -3.2 |
| Cn1c(Nc2ccc(C(F)(F)F)cc2)nc2cc(Oc3ccnc(-c4ncc(C(F)(F)F)[nH]4)c3)ccc21 [RAF-265] | 1 | 5.2 | -2.3 | -0.7 | 3 | 0.9 | 5.1 | 6.4 | 6.1 | 9.3 | -6.1 | -2.9 | -2.8 |
| O=C(NCc1cccc(O)c1)Nc1nc(-c2ccncc2)cs1 [RKI1447] | 0.4 | -1.2 | -0.2 | -1.1 | -1.2 | -1 | -1.2 | -1 | 6.9 | 4.8 | -1 | -0.6 | -0.9 |
| Cc1cnc(NC(=O)Nc2cc(Br)c(C)cc2OC[C@@H]2CNCCO2)cn1 [Rabusertib] | 8.7 | 12.5 | 1.2 | 8.8 | 2.4 | 7.2 | 6 | 5.6 | 10.7 | 6.1 | 1.8 | 8.8 | -4.9 |
| Cn1nccc1Nc1nccc(-c2ccn([C@H](CO)c3ccc(Cl)c(F)c3)c(=O)c2)n1 [Ravoxertinib] | -2 | -5 | -5 | -0.3 | -2.3 | -3.7 | -5 | -5 | -0.4 | 1.2 | -5 | -5 | -5 |
| CNC(=O)c1cc(Oc2ccc(NC(=O)Nc3ccc(Cl)c(C(F)(F)F)c3)c(F)c2)ccn1 [Regorafenib Monohydrate] | -1.1 | 8.9 | 5.5 | 0.4 | 1.5 | -2.3 | 11.6 | 1.8 | 13.6 | 5.8 | -3 | 1.3 | -3.4 |
| CNC(=O)c1cc(Oc2ccc(NC(=O)Nc3ccc(Cl)c(C(F)(F)F)c3)c(F)c2)ccn1 [Regorafenib] | -2 | -2 | 0.8 | -2 | -0.6 | -2 | -2 | -2 | -1.1 | -0.4 | -2 | -2 | 2.7 |
| C[C@H]1CNC(=O)c2cnn3ccc(nc23)N[C@H](C)c2cc(F)ccc2O1 [Repotrectinib] | 2.1 | 10.8 | 2.9 | -1.3 | 0.2 | 6.2 | 0.2 | 7.7 | 5 | 1.8 | -0.4 | -0.3 | -1.4 |
| Oc1ccc(/C=C/c2cc(O)cc(O)c2)cc1 [Resveratrol] | 4.4 | 13.8 | 10.1 | 0.9 | 0.1 | 0 | 11.6 | 4.7 | 16.5 | 7 | -2 | 1.4 | -4.6 |
| CN(C)C(=O)c1cc2cnc(Nc3ccc(N4CCNCC4)cn3)nc2n1C1CCCC1 [Ribociclib] | 0.4 | 3.5 | 4.2 | 4.1 | -2 | -2.1 | 2.6 | -3 | 8 | 1.9 | -2.3 | -2.1 | -0.8 |
| CNCc1ccc(-c2[nH]c3cc(F)cc4c3c2CCNC4=O)cc1 [Rucaparib] | 4.9 | 11.5 | 5.6 | 4.3 | -0.8 | 7.1 | 6.7 | 21 | 17.9 | 1.4 | -4 | -4 | -4.1 |
| N#CC[C@H](C1CCCC1)n1cc(-c2ncnc3[nH]ccc23)cn1 [Ruxolitinib] | 1.7 | -0.8 | -0.8 | -0.8 | -0.8 | -0.1 | -0.8 | 2.7 | -0.8 | 4.4 | -0.6 | 0.9 | 1.3 |
| CN1CCC(CNc2ccc3ncc(-c4cccc(OC(F)(F)F)c4)n3n2)CC1 [SGI1776] | 0.8 | 2.1 | 1.6 | 0.5 | -0.4 | 3.7 | 0.3 | -0.3 | 6.6 | 0.3 | 0.1 | 3.5 | 4.4 |
| CCc1c2c(nc3ccc(O)cc13)-c1cc3c(c(=O)n1C2)COC(=O)[C@]3(O)CC [SN-38] | 16.4 | 8.8 | 14.9 | 17.1 | -0.9 | 5.2 | 13.2 | 4.9 | 15.3 | 15.7 | -1 | 7 | -1.4 |
| CO[C@@H](C)Cn1c(=O)n(C)c2cnc3ccc(-c4cncc(C(C)(C)O)c4)cc3c21 [Samotolisib] | 6 | 10.9 | 2.3 | 2.6 | 4.5 | 0.9 | 1 | -2.7 | 12.2 | 7.1 | -8.8 | 2.3 | 0.5 |
| CN1CCN(CCOc2cc(OC3CCOCC3)c3c(Nc4c(Cl)ccc5c4OCO5)ncnc3c2)CC1 [Saracatinib] | -1.7 | 5.7 | 2.9 | -2.3 | 4.3 | 0.9 | -0.7 | 2.3 | 5.6 | -2.8 | -0.5 | 0.3 | -1.5 |
| O=C(/C=C\n1cnc(-c2cc(C(F)(F)F)cc(C(F)(F)F)c2)n1)NNc1cnccn1 [Selinexor] | -2.7 | 16.7 | 13.5 | 3.2 | -3.6 | 1.3 | -0.6 | 2.2 | 6.2 | -11.6 | -5.5 | -1.3 | -0.6 |
| NC(=O)C1CCCc2c1[nH]c1ccc(Cl)cc21 (configuration not stated) [Selisistat] | -0.9 | 8.9 | -1.3 | -1.4 | -1.4 | -1.3 | -1.4 | -1.3 | -1 | -0.7 | -0.9 | -0.5 | -2 |
| Cn1cnc2c(F)c(Nc3ccc(Br)cc3Cl)c(C(=O)NOCCO)cc21 [Selumetinib] | -2 | 5.1 | -1.9 | -2 | -2 | -2 | -2 | -2 | -2 | -2 | -2 | -2 | 2.5 |
| CO[C@H]1C[C@@H]2CC[C@@H](C)[C@@](O)(O2)C(=O)C(=O)N2CCCC[C@H]2C(=O)O[C@H]([C@H](C)C[C@@H]2CC[C@@H](O)[C@H](OC)C2)CC(=O)[C@H](C)/C=C(\C)[C@@H](O)[C@@H](OC)C(=O)[C@H](C)C[C@H](C)/C=C/C=C/C=C/1C [Sirolimus] | -0.6 | 6.7 | 14.2 | 7.2 | -2.2 | -0.4 | 5.7 | -8.7 | 17.8 | 2.7 | -10.4 | -10.4 | -6.7 |
| Cc1c(C(=O)Nc2ccc(N3C[C@@H](C)O[C@@H](C)C3)nc2)cccc1-c1ccc(OC(F)(F)F)cc1 [Sonidegib] | -1.4 | -1.4 | -1.4 | -1.4 | -1.4 | -1.4 | -1.1 | -1.4 | -1.1 | -1.4 | -1.4 | -1.4 | 2.3 |
| CNC(=O)c1cc(Oc2ccc(NC(=O)Nc3ccc(Cl)c(C(F)(F)F)c3)cc2)ccn1 [Sorafenib] | -1.2 | -1.2 | -1.2 | -1.2 | -0.3 | -1 | -0.8 | -1.2 | -1.2 | 0.2 | -1.2 | -0.5 | -1.8 |
| C=CC(=O)N1CCN(c2nc(=O)n(-c3c(C)ccnc3C(C)C)c3nc(-c4c(O)cccc4F)c(F)cc23)[C@@H](C)C1 [Sotorasib] | 2.8 | 4.1 | 5.9 | -3.1 | 1.9 | 0.9 | 4.7 | 6.3 | 10.6 | 5.5 | -0.1 | 2.7 | -4.3 |
| C=CC(=O)Nc1cccc(Nc2nc(Nc3ccc(OCCOC)cc3)ncc2F)c1 [Spebrutinib] | -1.4 | 4.7 | 3.7 | -1.6 | -3.5 | -3.1 | 1.8 | 4.7 | 8.3 | -2 | -2.9 | -2.5 | -2.8 |
| CCN(CC)CCNC(=O)c1c(C)[nH]c(/C=C2\C(=O)Nc3ccc(F)cc32)c1C [Sunitinib] | 0.7 | -0.8 | 2.3 | 2.2 | -2 | 3.9 | 7.6 | 6.4 | 8.5 | 1.7 | -1.4 | 3.2 | -3.3 |
| CN(C)C/C=C/C(=O)Nc1ccc(C(=O)Nc2cccc(Nc3ncc(Cl)c(-c4c[nH]c5ccccc45)n3)c2)cc1 [THZ1] | 10.2 | 8.6 | 11.4 | 0.1 | 9.2 | 6.7 | 4.2 | 9 | 4.3 | 7.4 | 0.9 | 0 | -8.9 |
| Cn1ncnc1[C@H]1c2n[nH]c(=O)c3cc(F)cc(c23)N[C@@H]1c1ccc(F)cc1 [Talazoparib] | 24.4 | 24.9 | 21.6 | 25.9 | -2.2 | 8.2 | 26.5 | 18.1 | 28.8 | 11.3 | -5.9 | -1.8 | 0.3 |
| CCN(c1cc(-c2ccc(CN3CCOCC3)cc2)cc(C(=O)NCc2c(C)cc(C)[nH]c2=O)c1C)C1CCOCC1 [Tazemetostat] | -0.7 | -1.1 | -1.1 | -1.1 | -1.1 | -1.1 | -1.1 | -1.1 | -1.1 | 1 | -0.9 | -0.8 | -7 |
